Experimental data reported in ChEMBL document CHEMBL1201862, “PubChem BioAssay data set” (2004).
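Each compound was tested at five concentrations against cells in 96-well plates for 48 hours. At the GI50, growth is halved.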 The source made the active and inactive calls. No stated cut-off is given here; in the data, active = GI50 up to about 1.1 µM and inactive = higher.

Key:
Assay in all cases: growth of human tumour cells (NCI), 48 h
786-0 = tested on: 786-0
A498 = tested on: A498
EKVX = tested on: EKVX
HCT-116 = tested on: HCT-116
Hs-578T = tested on: Hs-578T
KM12 = tested on: KM12
MCF7 = tested on: MCF7
MDA-MB-231 = tested on: MDA-MB-231
OVCAR-4 = tested on: OVCAR-4
OVCAR-5 = tested on: OVCAR-5
OVCAR-8 = tested on: OVCAR-8
RXF 393 = tested on: RXF 393
SF-295 = tested on: SF-295
SF-539 = tested on: SF-539
SK-MEL-28 = tested on: SK-MEL-28
SK-MEL-5 = tested on: SK-MEL-5
SR = tested on: SR
TK-10 = tested on: TK-10
UACC-257 = tested on: UACC-257
UACC-62 = tested on: UACC-62

Measured: GI50

Sc1ccc2ccccc2c1CNCc1ccccc1
inactive: 786-0 9.75 µM | A498 16.3 µM | EKVX 22.9 µM | HCT-116 13.8 µM | Hs-578T 22.7 µM | KM12 13.9 µM | MCF7 13.7 µM | MDA-MB-231 18.5 µM | OVCAR-4 10.9 µM | OVCAR-5 13.1 µM | OVCAR-8 20.5 µM | RXF 393 11.8 µM | SF-295 19.4 µM | SF-539 10 µM | SK-MEL-28 21.5 µM | SK-MEL-5 9.46 µM | SR 3.44 µM | TK-10 30.8 µM | UACC-257 26.6 µM | UACC-62 14.3 µM

COC(=O)C1=C(OC(=O)/C(=C/c2ccc(Cl)cc2Cl)c2ccc(Cl)cc2Cl)C(C(=O)OC)[C@@]2(O)[C@@H](C(=O)OC)[C@H](C)C[C@@H]1[C@@H]2C(=O)OC (stereo not given in full)
inactive: 786-0 > 100 µM | A498 > 100 µM | EKVX 47.8 µM | HCT-116 > 100 µM | Hs-578T > 100 µM | KM12 > 100 µM | MCF7 > 100 µM | MDA-MB-231 40 µM | OVCAR-4 > 100 µM | OVCAR-5 > 100 µM | OVCAR-8 34.4 µM | RXF 393 61.8 µM | SF-295 16.5 µM | SF-539 > 100 µM | SK-MEL-28 > 100 µM | SK-MEL-5 > 100 µM | SR > 100 µM | TK-10 > 100 µM | UACC-257 > 100 µM | UACC-62 92.5 µM

C[C@]12CCC(=O)C=C1CC[C@@H]1[C@@H]2CC[C@]2(C)C(=O)[C@H](n3ccnc3)C[C@@H]12
inactive: 786-0 > 100 µM | A498 > 100 µM | EKVX > 100 µM | HCT-116 > 100 µM | Hs-578T > 100 µM | KM12 > 100 µM | MCF7 > 100 µM | MDA-MB-231 > 100 µM | OVCAR-4 > 100 µM | OVCAR-5 > 100 µM | OVCAR-8 > 100 µM | RXF 393 > 100 µM | SF-295 > 100 µM | SF-539 > 100 µM | SK-MEL-28 > 100 µM | SK-MEL-5 63.1 µM | SR 74.1 µM | TK-10 > 100 µM | UACC-257 > 100 µM | UACC-62 > 100 µM

COc1cc(/C=[N+](\[O-])c2ccccc2Cl)ccc1OC(=S)S
inactive: 786-0 50.4 µM | A498 18.9 µM | EKVX 29.2 µM | HCT-116 32.5 µM | Hs-578T 61.7 µM | KM12 15.1 µM | MCF7 27.6 µM | MDA-MB-231 53.3 µM | OVCAR-4 3.01 µM | OVCAR-5 > 100 µM | OVCAR-8 32.7 µM | RXF 393 26.4 µM | SF-295 30.3 µM | SF-539 68.7 µM | SK-MEL-28 35 µM | SK-MEL-5 16.6 µM | SR 26.1 µM | TK-10 64.4 µM | UACC-257 26.4 µM | UACC-62 21 µM

O=C1C(C(O)(C(F)(F)Cl)C(F)(F)Cl)CCC1C(O)(C(F)(F)Cl)C(F)(F)Cl (stereo not given)
inactive: 786-0 > 10 µM | A498 3.85 µM | EKVX 4.1 µM | HCT-116 2.5 µM | Hs-578T 1.9 µM | KM12 4.45 µM | MCF7 3.48 µM | MDA-MB-231 3.34 µM | OVCAR-4 3.4 µM | OVCAR-5 5.43 µM | OVCAR-8 3.94 µM | RXF 393 5.05 µM | SF-295 2.58 µM | SF-539 2.74 µM | SK-MEL-28 3.42 µM | SK-MEL-5 5.94 µM | SR > 10 µM | TK-10 5.52 µM | UACC-257 2.79 µM | UACC-62 3.25 µM

O=C(CCl)Nc1ccc(C(=O)N/N=C/c2ccc(Cl)cc2)cc1
inactive: 786-0 1.58 µM | A498 2.21 µM | EKVX 2.19 µM | HCT-116 1.8 µM | Hs-578T 2.82 µM | MCF7 5.09 µM | MDA-MB-231 1.94 µM | OVCAR-4 2.09 µM | OVCAR-5 18.8 µM | OVCAR-8 2.29 µM | SF-295 4.06 µM | SF-539 2.01 µM | SK-MEL-28 5.68 µM | SK-MEL-5 5.77 µM | SR 1.79 µM | TK-10 15.9 µM | UACC-257 1.67 µM | UACC-62 3.56 µM
active: KM12 0.889 µM | RXF 393 0.946 µM

CCSc1s/c(=N/c2ccc(/N=c3\sc(C)c(SC)s3)cc2)sc1-c1ccc(C)cc1
inactive: 786-0 > 100 µM | A498 > 100 µM | EKVX > 100 µM | HCT-116 > 100 µM | Hs-578T > 100 µM | KM12 > 100 µM | MCF7 > 100 µM | MDA-MB-231 > 100 µM | OVCAR-4 > 100 µM | OVCAR-5 > 100 µM | OVCAR-8 > 100 µM | RXF 393 > 100 µM | SF-295 > 100 µM | SF-539 > 100 µM | SK-MEL-28 > 100 µM | SK-MEL-5 > 100 µM | SR > 100 µM | TK-10 > 100 µM | UACC-257 > 100 µM | UACC-62 > 100 µM

CCC[C@H](C)[C@H]1NC(=O)[C@@H](NC(=O)[C@@H](CC(C)C)N(C)C(=O)C2CCCN2C(=O)[C@H](C)O)[C@@H](C)OC(=O)[C@H](CC(C)C)N(C)C(=O)[C@@H]2CCCN2C(=O)[C@H](CC(C)C)NC(=O)[C@@H](C)C(=O)[C@H](C(C)C)OC(=O)C[C@@H]1O (stereo not given in full)
active: 786-0 < 0.0025 µM | A498 0.0115 µM | EKVX < 0.0025 µM | HCT-116 < 0.0025 µM | Hs-578T < 0.0025 µM | KM12 < 0.0025 µM | MCF7 < 0.0025 µM | MDA-MB-231 < 0.0025 µM | OVCAR-4 < 0.0025 µM | OVCAR-5 < 0.0025 µM | OVCAR-8 < 0.0025 µM | RXF 393 < 0.0025 µM | SF-295 < 0.0025 µM | SF-539 < 0.0025 µM | SK-MEL-28 < 0.0025 µM | SK-MEL-5 < 0.0025 µM | SR < 0.0025 µM | TK-10 < 0.0025 µM | UACC-257 < 0.0025 µM | UACC-62 < 0.0025 µM

COc1ccc(Oc2cnn(C(Br)(Br)C(C)=O)c(=O)c2Br)cc1
inactive: 786-0 13.9 µM | A498 24.8 µM | EKVX 17.1 µM | HCT-116 7 µM | Hs-578T 26.1 µM | KM12 14.8 µM | MCF7 15.4 µM | MDA-MB-231 17.9 µM | OVCAR-4 17.4 µM | OVCAR-5 17.7 µM | OVCAR-8 13.3 µM | RXF 393 6.08 µM | SF-295 18.2 µM | SF-539 12.4 µM | SK-MEL-28 16 µM | SK-MEL-5 16 µM | SR 1.69 µM | TK-10 13.5 µM | UACC-257 15.1 µM | UACC-62 15.7 µM
